{"source": "paper PMC7222207", "about": "“Characterization of a CholesteroNitrone (ISQ-201), a Novel Drug Candidate for the Treatment of Ischemic Stroke” (Antioxidants, 2020)", "key": {"[1]": {"tested_on": "transient forebrain ischemia", "test": "Global cerebral ischemia (4VO), neurological deficit score (NDS)", "assay_type": "in vivo, male Wistar rats", "conditions": "evaluated at 5 days", "method": "Transient forebrain ischemia was induced in adult male Wistar rats (10–12 weeks, Charles River) by the standard four-vessel occlusion model (4VO) described previously. Briefly, both vertebral arteries were irreversibly occluded by electrocoagulation under anesthesia, with a mixture of atropine, ketamine, and diazepam (0.25, 62.5, and 5 mg/kg, respectively) delivered through intraperitoneal injection. After 24 h, ischemia was induced by carotid occlusion with atraumatic clips, for 15 min, and then the clips were removed from the carotid arteries to allow reperfusion. Body temperature was maintained at 37 °C during the surgical procedure. The animals were studied after 5 days of reperfusion (R5d) after which they were sacrificed. Sham control animals were prepared in the same way, without carotid occlusion. We performed a power analysis (http://www.biomath.info/power/ttest.htm) to determine the sample size. Significance level and statistical power were set at 0.05 and 0.8 (80%), respectively, which afforded a sample size of <6 subjects per group. […]\nNeurological deficits in rats subjected to global cerebral ischemia were blindly evaluated after 5 days of reperfusion (R5d). […]\nIn order to quantify potential functional impairments, the general state of the animals was assessed. […]"}, "[2]": {"tested_on": "transient middle cerebral artery occlusion", "test": "Transient focal cerebral ischemia (tMCAO), grip strength test", "assay_type": "in vivo, male C57BL/6 mice", "conditions": "mice, 0.05 mg/kg or 0.1 mg/kg ip at onset of reperfusion, 24 and 48 h after treatment", "method": "Transient occlusion of the distal branch of the middle cerebral artery (tMCAO) was induced in male C57BL/6 mice (9–11 weeks old, Charles River), as described previously. Mice were anesthetized with 4% isoflurane for induction and 1.5–2% isoflurane for maintenance (in 79% N2/21% O2). After drilling a small hole on the temporal bone at the level of the distal portion of the middle cerebral artery (MCA), the artery was compressed for 60 min, with a 30-G needle by using a micromanipulator. Body temperature was maintained between 36.5–37.5 °C and cerebral blood flow was monitored using laser-Doppler flowmetry to confirm MCA occlusion. Buprenorphine (0.05–0.1 mg/kg) was administered subcutaneously immediately before the procedure. A total of 33 mice were subjected to tMCAO, according to the study design. A power analysis was performed to determine the sample size (significance level set at 0.05, and the power set at 0.8 (80%)), which identified the need for 8 mice to be included in each experimental group. […]\nNeurobehavioral studies were performed to evaluate ischemic outcomes and monitor motor function after focal ischemia. […] A total of six trials were conducted for each test and the strength value (expressed in grams) was calculated as the mean of all six trials."}, "[3]": {"tested_on": "transient forebrain ischemia, hippocampal CA1 and cortical neurons", "test": "Global cerebral ischemia (4VO), neuronal death by Fluoro-Jade B staining", "assay_type": "in vivo, male Wistar rats", "conditions": "for maximum neuroprotection (Emax), neuronal death assay: iv at reperfusion onset", "method": "Transient forebrain ischemia was induced in adult male Wistar rats (10–12 weeks, Charles River) by the standard four-vessel occlusion model (4VO) described previously. Briefly, both vertebral arteries were irreversibly occluded by electrocoagulation under anesthesia, with a mixture of atropine, ketamine, and diazepam (0.25, 62.5, and 5 mg/kg, respectively) delivered through intraperitoneal injection. After 24 h, ischemia was induced by carotid occlusion with atraumatic clips, for 15 min, and then the clips were removed from the carotid arteries to allow reperfusion. Body temperature was maintained at 37 °C during the surgical procedure. The animals were studied after 5 days of reperfusion (R5d) after which they were sacrificed. Sham control animals were prepared in the same way, without carotid occlusion. We performed a power analysis (http://www.biomath.info/power/ttest.htm) to determine the sample size. Significance level and statistical power were set at 0.05 and 0.8 (80%), respectively, which afforded a sample size of […] subjects per group. The treatments were administered with concealed allocation, and in randomized order, according to a computer-generated randomization program. Ischemic animals were treated with a vehicle solution (saline/ethanol, 90:10 vol/vol) or nitrone ISQ-201, dissolved in a vehicle solution through a single intravenous tail injection, when the carotid arteries were unclamped for reperfusion. In therapeutic window experiments, the animals were treated once at the reperfusion onset or at the set reperfusion time points, after ischemia. For the administration, at 6 h and 48 h of reperfusion after ischemia, the animals were anesthetized with isoflurane for 2–3 min and 5 min, respectively, prior to the treatment administration. An independent researcher prepared the treatments for each animal, according to the randomization schedule. Data of each experimental group were normalized to each vehicle control group. All procedures associated with animal experiments were approved by the Animal Care Ethics Committee of the Hospital Universitario Ramón y Cajal (Madrid, Spain, code no. 06/2015) and were performed according to the ARRIVE guidelines.\nAfter 5 days of reperfusion (R5d), the animals were euthanized by transcardiac perfusion, under deep anesthesia. […]\nBrain cryosections (10 µm thick) from ischemic animals reperfused for 5 days were used after fixation to detect neuronal death by Fluoro-Jade B staining, and visualized by fluorescence microscopy. Labeled (dead) neuronal cells (in green) were counted, as in TUNEL assay (see below). Data from different animals of each experimental group were independently analyzed by two observers, and treatment information was kept concealed throughout the study."}}}
{"smiles": "CC(C)[C@H]1CC[C@H]2[C@@H]3CCC4=C/C(=[N+](\\C)[O-])CC[C@]4(C)[C@H]3CC[C@]12C", "note": "[ISQ-201]", "values": [{"measurement": "neurological deficit score (NDS) vs vehicle", "setting": "[1]; 0.05 mg/kg iv given after 48 h of reperfusion", "value": "could not improve"}, {"measurement": "neurological deficit score (NDS) vs vehicle", "setting": "[1]; 0.05 mg/kg iv given between 0 and 6 h of post-reperfusion", "value": "improvement"}, {"measurement": "motor deficit (grip strength) vs vehicle", "setting": "[2]", "value": "significant decrease"}, {"measurement": "neuronal death vs vehicle, therapeutic window", "setting": "[3]; 0.05 mg/kg iv given between 0 and 6 h after reperfusion, CA1 and cortex, evaluated at 5 days", "value": "significantly decreased"}, {"measurement": "dead neuron number vs vehicle group", "setting": "[3]; 0.05 and 0.1 mg/kg iv at reperfusion onset, CA1 and cortex, 5 days of reperfusion", "value": "significant reduction"}, {"measurement": "maximum neuroprotection (Emax), neuronal death assay", "setting": "[3]; cortex, most potent concentration, 5 days of reperfusion, vs vehicle = 0%", "value": 80, "unit": "%"}, {"measurement": "maximum neuroprotection (Emax), neuronal death assay", "setting": "[3]; hippocampal CA1, most potent concentration, 5 days of reperfusion", "value": 31, "unit": "%"}]}
